Results from publication PMC6479349, “Derivatives of 3-Aminopyrazine-2-carboxamides: Synthesis, Antimicrobial Evaluation, and in Vitro Cytotoxicity” (Molecules, 2019).
In brackets after ≈: the same amount, converted by molar mass. Several values for one entry are separate records, joined by “and”; a condition that tells them apart may be missing. Equal values may be shown once. Read-outs that look alike come from different tables or passages of the source.

Legend:
[1] = system: Trichophyton interdigitale CCM 8377; assay: Antifungal microdilution broth MIC; settings: for MIC: Trichophyton interdigitale, CCM8377, 72 h
[2] = Lipophilicity by reverse phase HPLC (log k); settings: RP-HPLC C18, MeOH 70% / H2O 30%, 30 °C
Method: The mobile phase consisted of MeOH (HPLC grade, 70%) and H2O (HPLC-Milli-Q Grade, 30%). The flow rate was 1.0 mL/min, samples were injected in a volume of 20 µL, and the column temperature was 30 °C. Detection and monitoring wavelength were 210 nm and 270 nm, respectively. Retention times (Rt) were measured in minutes. The dead time of the system (Dt) was determined as the retention time of the KI methanolic solution. Capacity factors k for individual compounds were calculated according to the formula k = (Rt – Dt)/Dt. Capacity factor k was converted to log scale and (log k) and used as a measure of lipophilicity.

[3] = system: Mycobacterium tuberculosis H37Rv; assay: Antimycobacterial microdilution broth MIC (Alamar Blue); type: cell-based
[4] = system: Mycobacterium smegmatis DSM 43465; assay: Antimycobacterial microdilution broth panel MIC (resazurin); type: cell-based
[5] = system: M. kansasii CNCTC My 235/80; assay: Antimycobacterial microdilution broth MIC (Alamar Blue); type: cell-based, Mycobacterium kansasii; settings: Mycobacterium kansasii
[6] = system: tested bacterial strains; assay: Antibacterial microdilution broth screening, strain not specified; settings: read-out: MIC against the tested strains (antibacterial)
[7] = In vitro cytotoxicity, CellTiter 96 Aqueous One; settings: human
[8] = system: Staphylococcus aureus methicillin resistant CCM 4750; assay: Antibacterial microdilution broth MIC
[9] = system: Staphylococcus aureus CCM 4223; assay: Antibacterial microdilution broth MIC
[10] = system: Staphylococcus epidermidis 112-2016; assay: Antibacterial microdilution broth MIC
[11] = system: Mycobacterium aurum DSM 43999; assay: Antimycobacterial microdilution broth panel MIC (resazurin); type: cell-based; settings: Mycolicibacterium aurum, DSM43999
[12] = system: Lichtheimia corymbifera CCM 8077; assay: Antifungal microdilution broth MIC; settings: CCM8077, 48 h, read-out: MIC Lichtheimia corymbifera (standards)
[13] = system: C. parapsilosis CCM 8260; assay: Antifungal microdilution broth MIC; settings: Lodderomyces parapsilosis, CCM8260, 48 h, read-out: MIC C. parapsilosis (standards)
[14] = system: C. tropicalis CCM 8264; assay: Antifungal microdilution broth MIC; settings: Candida tropicalis, CCM8264, 48 h, read-out: MIC C. tropicalis (standards)
[15] = system: C. krusei CCM 8271; assay: Antifungal microdilution broth MIC; settings: Pichia kudriavzevii, CCM8271, 48 h, read-out: MIC C. krusei (standards)
[16] = system: Aspergillus flavus CCM 8363; assay: Antifungal microdilution broth MIC; settings: CCM8363, 48 h, read-out: MIC Aspergillus flavus (standards)
[17] = system: Pseudomonas aeruginosa CCM 3955; assay: Antibacterial microdilution broth MIC; settings: CCM3955, 48 h, read-out: MIC Pseudomonas aeruginosa (standards)
[18] = system: Escherichia coli CCM 3954; assay: Antibacterial microdilution broth MIC; settings: CCM3954, 48 h, read-out: MIC Escherichia coli (standards)
[19] = system: Enterococcus faecalis CCM 4224; assay: Antibacterial microdilution broth MIC; settings: CCM4224, 48 h, read-out: MIC Enterococcus faecalis (standards)
[20] = system: Serratia marcescens 62-2016; assay: Antibacterial microdilution broth MIC; settings: Serratia marcescens, 622016, 48 h, read-out: MIC Serratia marcescens (standards)
[21] = system: Klebsiella pneumoniae 64-2016; assay: Antibacterial microdilution broth MIC; settings: Klebsiella pneumoniae, 642016, 48 h, read-out: MIC Klebsiella pneumonia (standards)
[22] = Mycobacterium tuberculosis, H37RV, M. tuberculosis H37Rv, value in parentheses
[23] = Mycobacterium tuberculosis, H37RV, pH 6.6, M. tuberculosis H37Rv, Middlebrook 7H9 pH 6.6
[24] = Mycolicibacterium smegmatis, DSM43465
[25] = Mycolicibacterium smegmatis, DSM43465, value in parentheses
[26] = M. tuberculosis H37Rv, Middlebrook 7H9 pH 6.6
[27] = M. tuberculosis H37Rv, value in parentheses
[28] = CCM4750, 48 h, read-out: MIC Staphylococcus aureus methicillin resistant (standards)
[29] = CCM4223, 48 h, read-out: MIC Staphylococcus aureus (standards)
[30] = Staphylococcus epidermidis, 1122016, 48 h, read-out: MIC Staphylococcus epidermidis (standards)

SMILES	log k [2]	MIC [3, 22] [µM]	MIC [3, 23] [µg/mL]	MIC [4, 24] [µg/mL]	MIC [4, 25] [µM]	also measured
Nc1nccnc1C(=O)NCc1ccccc1 [Compound 1, 3-Amino-N-benzylpyrazine-2-carboxamide]	0.056	> 438	> 100	> 500	> 2190	antifungal activity against TI [1]: showed activity mainly against TI
Cc1ccccc1CNC(=O)c1nccnc1N [Compound 2, 3-Amino-N-(2-methylbenzyl)pyrazine-2-carboxamide]	0.278	> 413	> 100	> 500	> 2060	
Cc1ccc(CNC(=O)c2nccnc2N)cc1 [Compound 3, 3-Amino-N-(4-methylbenzyl)pyrazine-2-carboxamide]	0.289	413	50 to 100	> 500	> 2060	antifungal activity against TI [1]: showed activity mainly against TI; MIC Mtb [3, 26]: 100 µg/mL (≈ 413 µM)
COc1ccc(CNC(=O)c2nccnc2N)cc1 [Compound 4, 3-Amino-N-(4-methoxybenzyl)pyrazine-2-carboxamide]	0.026	387	50 to 100	> 500	> 1940	antifungal activity against TI [1]: showed activity mainly against TI; MIC Mtb [3, 26]: 100 µg/mL (≈ 387 µM)
COc1ccc(CNC(=O)c2nccnc2N)c(OC)c1 [Compound 5, 3-Amino-N-(2,4-dimethoxybenzyl)pyrazine-2-carboxamide]	0.188	> 347	> 100	> 500	> 1730	
Nc1nccnc1C(=O)NCc1ccc(Cl)c(Cl)c1 [Compound 6, 3-Amino-N-(3,4-dichlorobenzyl)pyrazine-2-carboxamide]	0.493	> 336	> 100	> 500	> 1680	
Nc1nccnc1C(=O)NCc1cccc(C(F)(F)F)c1 [Compound 7, 3-Amino-N-(3-(trifluoromethyl)benzyl)pyrazine-2-carboxamide]	0.282	169	50 to 100	250	844	antifungal activity against TI [1]: showed activity mainly against TI; MIC Mtb [3, 26]: 50 µg/mL (≈ 169 µM)
Nc1nccnc1C(=O)NCc1ccc(C(F)(F)F)cc1 [Compound 8, 3-Amino-N-(4-(trifluoromethyl)benzyl)pyrazine-2-carboxamide]	0.308	169	50 to 100	> 500	> 1690	MIC Mtb [3, 26]: 50 µg/mL (≈ 169 µM)
CCCCCNC(=O)c1nccnc1N [Compound 9, 3-Amino-N-pentylpyrazine-2-carboxamide]	0.327	> 480	> 100	> 500	> 2400	MIC ([1]; read-out: MIC72h TI): 500 µM
CCCCCCNC(=O)c1nccnc1N [Compound 10, 3-Amino-N-hexylpyrazine-2-carboxamide]	0.569	450	100	250	1120	MIC [5]: 100 µg/mL and 450 µM; MIC ([1]; read-out: MIC72h TI): 250 µM; MIC [3, 27]: 449.9 µM; MIC [6]: 500 µM (≈ 111 µg/mL); IC50 at 24 h [7]: 389 µM
CCCCCCCNC(=O)c1nccnc1N [Compound 11, 3-Amino-N-heptylpyrazine-2-carboxamide]	0.813	212	50	62.5	264	MIC [5]: 50 µg/mL and 212 µM; MIC ([1]; read-out: MIC72h TI): 500 µM; MIC [3, 27]: 211.6 µM; MIC [6]: 250 µM (≈ 59.1 µg/mL); MIC ([4]; value in parentheses): 264.5 µM
CCCCCCCCNC(=O)c1nccnc1N [Compound 12, 3-Amino-N-octylpyrazine-2-carboxamide]	1.057	100	25	62.5	250	MIC [5]: 25 µg/mL and 100 µM; MIC ([1]; read-out: MIC72h TI): 250 µM; MIC [3, 27]: 99.9 µM; MIC [6]: 62.5 µM (≈ 15.6 µg/mL); MIC ([4]; value in parentheses): 249.7 µM
Cc1ccc(C)c(NC(=O)c2nccnc2N)c1 [Compound 15, 3-Amino-N-(2,5-dimethylphenyl)pyrazine-2-carboxamide]	0.778	> 413	> 100	> 500	> 2060	
CCc1ccc(NC(=O)c2nccnc2N)cc1 [Compound 16, 3-Amino-N-(4-ethylphenyl)pyrazine-2-carboxamide]	0.623	> 413	> 100	> 500	> 2060	IC50 at 24 h [7]: > 250 µM
Nc1nccnc1C(=O)Nc1ccc(F)cc1F [Compound 18, 3-Amino-N-(2,4-difluorophenyl)pyrazine-2-carboxamide]	0.422	> 400	> 100	> 500	> 2000	
Nc1nccnc1C(=O)Nc1ccc(Cl)c(Cl)c1 [Compound 19, 3-Amino-N-(3,4-dichlorophenyl)pyrazine-2-carboxamide]	0.778	177	50	> 500	> 1770	
Nc1nccnc1C(=O)Nc1ccc(C(F)(F)F)cc1 [Compound 20, 3-Amino-N-(4-(trifluoromethyl)phenyl)pyrazine-2-carboxamide]	0.525	177	50	31.2	111	MIC ([8]; CCM4750|MRSA, read-out: MIC methicillin resistant S. aureus (MRSA)): 62.5 µM; MIC ([9]; CCM4223, read-out: MIC Staphylococcus aureus): 31.2 µM; MIC ([10]; Staphylococcus epidermidis, 1122016, read-out: MIC S. epidermidis): 62.5 µM; IC50 at 24 h [7]: 41.4 µM; MIC ([4]; value in parentheses): 110.7 µM
NC(=O)c1cnccn1 [PZA, Pyrazinamide, reference compound]			100	> 100		
CO[C@H]1/C=C/O[C@@]2(C)Oc3c(C)c(O)c4c(O)c(c(/C=N/N5CCN(C)CC5)c(O)c4c3C2=O)NC(=O)/C(C)=C\C=C\[C@H](C)[C@H](O)[C@@H](C)[C@@H](O)[C@@H](C)[C@H](OC(C)=O)[C@@H]1C [RIF, rifampicin, reference compound]				12.5 to 25		MIC [11]: 0.78 to 1.56 µg/mL (≈ 0.948 to 1.9 µM)
C[C@@H]1[C@H](O)[C@@H](C)/C=C/C=C/C=C/C=C/C=C/C=C/C=C/[C@H](O[C@@H]2O[C@H](C)[C@@H](O)[C@H](N)[C@@H]2O)C[C@@H]2O[C@](O)(C[C@@H](O)C[C@@H](O)[C@H](O)CC[C@@H](O)C[C@@H](O)CC(=O)O[C@H]1C)C[C@H](O)[C@H]2C(=O)O [amphotericin B]						MIC [12]: 0.5 µg/mL (≈ 0.541 µM); MIC [13]: 0.5 µg/mL (≈ 0.541 µM); MIC [14]: 1 µg/mL (≈ 1.08 µM); MIC [15]: 1 µg/mL (≈ 1.08 µM); MIC ([1]; read-out: MIC Trichophyton interdigitale (standards)): 2 µg/mL; MIC [16]: 8 µg/mL (≈ 8.66 µM)
O=C(O)c1cn(C2CC2)c2cc(N3CCNCC3)c(F)cc2c1=O [ciprofloxacin]				0.0625 to 0.125		MIC [17]: 0.128 µg/mL (≈ 0.386 µM); MIC [8, 28]: 0.128 µg/mL; MIC [18]: 0.008 µg/mL (≈ 0.0241 µM); MIC [19]: 0.512 µg/mL (≈ 1.55 µM); MIC [9, 29]: 0.128 to 0.256 µg/mL; MIC [10, 30]: > 1.02 µg/mL; MIC [11]: 0.00781 to 0.0156 µg/mL (≈ 0.0236 to 0.0472 µM); MIC [20]: 0.256 µg/mL (≈ 0.773 µM); MIC [21]: > 1.02 µg/mL
CNC(C)C1CCC(N)C(OC2C(N)CC(N)C(OC3OCC(C)(O)C(NC)C3O)C2O)O1 (centres unmarked) [gentamicin]						MIC [17]: 0.5 µg/mL (≈ 1.05 µM); MIC [8, 28]: 16 to 32 µg/mL; MIC [18]: 1 to 2 µg/mL (≈ 2.09 to 4.19 µM); MIC [19]: 8 µg/mL (≈ 16.8 µM); MIC [9, 29]: 1 µg/mL; MIC [10, 30]: > 8 µg/mL; MIC [20]: 2 µg/mL (≈ 4.19 µM); MIC [21]: > 8 µg/mL
